Laboratory results published in paper PMC7232201 (Microorganisms, 2020).
Counter-ions that a name gives are not always drawn.

Target: T1, ArsR (Helicobacter pylori, UniProt O24973)
T1 construct: expressed in E. coli BL21(DE3)
Experiment: isothermal titration calorimetry
Format: binding
Settings: read-out: ITC ^a / Kd

T1 sequence (O24973 whole entry): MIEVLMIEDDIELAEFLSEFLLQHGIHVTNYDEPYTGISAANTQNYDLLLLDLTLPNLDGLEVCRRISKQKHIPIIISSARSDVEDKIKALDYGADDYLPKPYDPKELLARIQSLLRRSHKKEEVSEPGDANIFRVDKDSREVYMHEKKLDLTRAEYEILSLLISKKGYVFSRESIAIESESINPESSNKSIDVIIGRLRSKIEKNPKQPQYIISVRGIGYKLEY

For CCCCCN(CCCCC)C(=O)C(CCC(=O)O)NC(=O)c1ccc(Cl)c(Cl)c1 (stereo not drawn) [Lorglumide sodium salt], which Kd is on record?
The Kd was 0.67 µM.

Which Kd does the source give for CC[N+](C)(CC)CCC[n+]1c(-c2ccccc2)c2cc(N)ccc2c2ccc(N)cc21 [Propidium iodide] here?
Its Kd is 18 µM.

Which Kd does the source give for C[C@H](CCC(=O)O)[C@H]1CC[C@H]2[C@@H]3CC[C@@H]4C[C@H](O)CC[C@]4(C)[C@H]3CC[C@]12C [Lithocholic acid] here?
Its Kd is 4.9 µM.
